Consider 49 molecules from ChEMBL document CHEMBL1201862, “PubChem BioAssay data set” (2004).

Test [1] can be described thus: inhibitors of intracellular T. cruzi replication, confirmation, NIH3T3 host cells, beta-gal luminescence (AID 2044).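 Also: intracellular parasites grown in NIH/3T3 mouse fibroblasts as host cells; luminescent beta-galactosidase reporter signal from transgenic T. cruzi replicating inside host cells; inhibitors lower the luminescence signal.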 The format is functional, cell-based.
The nature of test [2]: cytotoxicity toward NIH3T3 fibroblasts, dose response, counter-screen, cell-based, ATP luminescence, mouse fibroblasts (AID 2010).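 Also: cells exposed to compound for about 90 hours before reading.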 The format is functional.
The subject of test [3] is Streptococcus sp. 'group A'. Description: growth inhibition of control SK(-) GAS strain, dose response, counter-screen for streptokinase expression inhibitor project, luminescence, kanamycin, BacTiterGlo, confirmation (AID 1900). The format is functional, organism-based. For orientation: A counterscreen serves to expose hits that act by an unwanted route or on another target.

For test [4], the system named is Streptococcus. The experiment in a line: Group A Streptococcus viability loss, dose response, counter-screen for streptokinase expression inhibitor project, luminescence, BacTiterGlo (AID 1915).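 Also: potency for reduction of bacterial viability or growth.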 The format is functional, organism-based.
Test [5] deals with T1, Streptokinase A (Streptococcus pyogenes serotype M1, UniProt P10520).
T1 sequence (P10520 whole entry): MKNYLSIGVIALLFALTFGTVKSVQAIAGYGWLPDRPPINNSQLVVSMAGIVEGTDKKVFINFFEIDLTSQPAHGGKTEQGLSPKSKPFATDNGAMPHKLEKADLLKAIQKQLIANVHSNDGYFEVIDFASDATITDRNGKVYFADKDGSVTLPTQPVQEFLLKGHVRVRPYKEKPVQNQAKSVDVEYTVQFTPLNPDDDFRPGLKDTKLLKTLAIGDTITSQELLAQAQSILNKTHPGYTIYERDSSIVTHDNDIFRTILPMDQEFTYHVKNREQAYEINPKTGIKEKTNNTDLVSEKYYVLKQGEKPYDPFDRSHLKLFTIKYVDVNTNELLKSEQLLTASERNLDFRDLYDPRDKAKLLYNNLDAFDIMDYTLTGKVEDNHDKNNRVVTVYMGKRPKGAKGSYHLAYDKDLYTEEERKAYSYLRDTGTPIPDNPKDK
Description: S. pyogenes streptokinase expression inhibitors, potency, dose response, plasminogen activation absorbance, OD405 (AID 1914).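 Also: secreted streptokinase activity via plasminogen activation per viability signal from cell pellet.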 The format is functional, Streptococcus pyogenes M1 GAS.

Test [6] has as its target Cytochrome P450 3A4 (Homo sapiens, UniProt P08684).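 Also: CYP3A4 tested as one member of a cytochrome P450 panel screen.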
For test [7], the target named is T2, Heat shock factor protein 1 (Mus musculus, UniProt P38532).
T2 sequence (P38532 whole entry): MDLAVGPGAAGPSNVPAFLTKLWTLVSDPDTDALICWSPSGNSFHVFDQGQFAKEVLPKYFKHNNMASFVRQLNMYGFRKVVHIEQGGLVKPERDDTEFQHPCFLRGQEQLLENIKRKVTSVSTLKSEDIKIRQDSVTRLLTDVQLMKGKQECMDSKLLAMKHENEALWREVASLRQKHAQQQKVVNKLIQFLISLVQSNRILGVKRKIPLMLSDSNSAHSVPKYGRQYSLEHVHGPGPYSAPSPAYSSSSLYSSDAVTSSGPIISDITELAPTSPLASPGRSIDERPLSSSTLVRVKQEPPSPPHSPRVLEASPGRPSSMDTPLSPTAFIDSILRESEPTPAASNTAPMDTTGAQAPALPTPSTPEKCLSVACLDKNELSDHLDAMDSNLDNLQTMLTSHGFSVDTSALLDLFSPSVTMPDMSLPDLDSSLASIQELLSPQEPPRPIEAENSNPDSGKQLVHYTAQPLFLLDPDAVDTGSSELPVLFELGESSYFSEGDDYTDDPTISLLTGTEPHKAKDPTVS
Description: inhibition of MG132-induced HSE-luciferase signal, confirmation, cell-based, NIH3T3, luminescence, dose retest (AID 2382).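 Also: NIH3T3 fibroblasts with HSF1-driven luciferase reporter stressed by proteasome inhibitor MG132; luminescence from HSF1-driven luciferase expression after 8 hours of MG132 stress.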 The format is functional.

Values joined by “and” are separate entries in the source; they are usually repeats but may differ in a detail not shown here. Equal values may be shown once. Active and inactive are the calls of the source. Rule as the data show it, for most assays here: actives have a measured EC50 and inactives only a lower limit. Bounds are passed on as bounds.

Sequence of Cytochrome P450 3A4 (P08684 whole entry): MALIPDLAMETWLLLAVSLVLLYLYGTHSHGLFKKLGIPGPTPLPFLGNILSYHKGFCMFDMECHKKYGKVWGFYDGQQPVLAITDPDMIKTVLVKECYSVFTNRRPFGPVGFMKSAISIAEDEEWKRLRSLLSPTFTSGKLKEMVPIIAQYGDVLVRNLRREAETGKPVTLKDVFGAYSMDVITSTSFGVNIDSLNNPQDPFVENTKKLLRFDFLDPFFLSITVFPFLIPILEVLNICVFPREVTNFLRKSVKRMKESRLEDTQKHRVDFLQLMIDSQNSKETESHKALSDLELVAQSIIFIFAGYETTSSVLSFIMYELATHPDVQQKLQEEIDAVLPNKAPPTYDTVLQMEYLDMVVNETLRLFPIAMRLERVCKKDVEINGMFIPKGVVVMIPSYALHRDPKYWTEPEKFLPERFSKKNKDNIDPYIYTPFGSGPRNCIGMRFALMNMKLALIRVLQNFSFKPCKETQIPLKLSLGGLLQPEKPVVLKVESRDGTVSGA

In general, EC50 refers to the concentration needed to bring the measured effect to its halfway point. Take `Cc1nc2cc([N+](=O)[O-])ccc2c(=O)n1-c1ccccc1[N+](=O)[O-]`: the EC50 is 1.91 µM (active) in test [1] and 19.1 µM (active) in test [2].

As for `Sc1nc(SCc2ccccc2)nc2ccccc12`, the EC50 in test [3] is 4.43 µM (active); in test [4] it was 64.9 µM (active).

Take `COC(=O)c1ccc(CSc2cc(C)c3cc(C)cc(C)c3n2)o1`: the values for the EC50 in test [3], in test [4] and in test [5] were 34.2 µM (active), > 150 µM (not active) and 12.6 µM (active), respectively.

Usually AC50 stands for the concentration at which the activity in the assay is half-maximal. With `C[C@H](N)Cc1c[nH]c2ccc(OCc3cccs3)cc12`, the AC50 in test [6] was 15.8 µM (inconclusive) and 12.6 µM (inconclusive).

As to `CCCCN(C)S(=O)(=O)c1ccc(C(=O)N(CCN(C)C)c2nc3ccc(C)cc3s2)cc1`, the values for the EC50 in test [1] and in test [2] were 0.182 µM (active) and > 60 µM (inconclusive), respectively.

Consider `COCCOC(=O)CC1=NC(=O)CS1`, for which the EC50 in test [7] was > 195 µM (not active).

Take `COc1cccc(COC(=O)c2ccc3c(=O)n4c(nc3c2)CCC4)c1OC`: the EC50 in test [3] was 10.8 µM (active); in test [4] it was 34.1 µM (active); in test [5], > 150 µM (not active).

With `Cc1cccc(NC(c2ccc(C)s2)c2ccc3ccc(C)nc3c2O)n1` (centres undefined), the results for the EC50 in test [3], in test [4] and in test [5] were 2.83 µM (active), 9.05 µM (active) and 2.96 µM (active), respectively.

With `CCCCCCCc1nn2c(O)cc(=O)nc2s1`, the EC50 is 10.9 µM (active) in test [3], > 150 µM (not active) in test [4] and > 150 µM (not active) in test [5].

In the case of `C=CCn1c(O)c(N=NC(=S)Nc2ccc(OC)c(Cl)c2)c2ccccc21`, the EC50 in test [1] was 0.586 µM (active); in test [2] it was 3.88 µM (active).

In the case of `C=CCn1c(C)cc(C(=O)CSc2nnc(NC(C)C)s2)c1C`, in test [7], the EC50 is reported as > 195 µM (not active).

As for `O=C(CSc1nnc(NC(=O)c2cccc(Cl)c2)s1)NCC1CCCO1` (centres undefined), the EC50 in test [3], in test [4] and in test [5] was > 150 µM (not active) each time.

For the molecule `COc1ccc(-n2ncc3c(NCCCN4CCOCC4)ncnc32)cc1`, in test [7], the EC50 was 1.52 µM (active).

Take `Cc1c2c(n3c(nc4ccccc43)c1C#N)N(CCCN(C)C)CC2`: the EC50 is 0.242 µM (active) in test [1] and > 60 µM (not active) in test [2].

For `Cc1cccc(CN2CCCC(C(=O)N3CCc4ccccc4C3)C2)c1` (centres undefined), the values for the EC50 in test [1] and in test [2] were 0.214 µM (active) and > 60 µM (not active), respectively.

Consider `Cc1ccc(CN2C(=O)c3ccccc3NC2c2cc(Br)ccc2O)cc1` (centres undefined), for which the EC50 in test [3] is 5.08 µM (active); in test [4], 8.52 µM (active); in test [5], 5 µM (active).

In the case of `CCCCC(=O)Nc1cccc(NC(=O)c2cccc(Br)c2)c1`, in test [7], the EC50 is listed as > 195 µM (not active).

On to `Cc1ccc(-c2nn(-c3ccccc3)cc2CN(C)C(=O)CCC(=O)O)cc1C`, for which the EC50 in test [7] is > 195 µM (not active).

With `COc1ccc(N(C)C(=O)c2oc(=O)c3ccccc3c2-c2ccccc2)c(OC)c1`, in test [7], the EC50 was > 195 µM (not active).

`CCC1COCCS(=O)(=O)N1Cc1ccccc1C` (centres undefined): the EC50 in test [7] is on record as > 195 µM (not active).

Regarding `OCCCCNCc1ccc(OCc2ccc(Cl)cc2)cc1`, the EC50 in test [1] is 2.39 µM (active); in test [2], 10.6 µM (active).

With `Cc1cc(C(C)(C)C)ccc1OCCOCCN1CCCC1`, the results for the EC50 in test [1] and in test [2] were 0.913 µM (active) and > 60 µM (inconclusive), respectively.

Take `N#CC1=C(N)SC(N)=C(C#N)C1c1c(Cl)cccc1Cl`: the EC50 in test [3] was 6.67 µM (active); in test [4], > 150 µM (not active); in test [5], 93.5 µM (active).

As to `Cc1cccc(N2CCN(C(=O)c3ccc4nc(N5CCCCC5)sc4c3)CC2)c1C`, the EC50 was 13.8 µM (active) in test [3], 140 µM (active) in test [4] and 14.6 µM (active) in test [5].

With `Cc1ccccc1C(=O)OC1CCN(C)CC1`, the EC50 in test [1] is 0.115 µM (active); in test [2] it was 42.4 µM (active).

As for `CCn1ncc(CN2CCCC(CNC(=O)c3ccc(F)cc3)C2)c1C` (centres undefined), the EC50 in test [1] is 0.106 µM (active); in test [2], > 60 µM (not active).

Consider `CC(C)(C)NC(=O)CSc1nc2ccc(Nc3nc(N4CCOCC4)nc(N4CCOCC4)n3)cc2s1`, for which the results for the EC50 in test [1] and in test [2] were 0.832 µM (active) and > 30 µM (not active), respectively.

In the case of `Cc1cc(C)c2nc(O)c(CN(Cc3ccccc3)C(S)=NCCCN(C)C)cc2c1`, the results for the EC50 in test [1] and in test [2] were 2.19 µM (active) and > 60 µM (not active), respectively.

In the case of `CCOC(=O)c1c(-c2ccccc2)c2cc(OC)ccc2n1CCCN(C)C`, the values for the EC50 in test [1] and in test [2] were 0.653 µM (active) and 16.3 µM (active), respectively.

For `CCC(C)n1c(SC(C)C#N)nc2ccccc2c1=O` (centres undefined), the EC50 in test [7] was > 195 µM (not active).

On to `COC(=O)C(Cc1cnc(Cl)s1)(C(=O)OC)c1ccc([N+](=O)[O-])cc1[N+](=O)[O-]`, for which the results for the EC50 in test [1] and in test [2] were 1.2 µM (active) and > 60 µM (not active), respectively.

With `Cc1nn(-c2ccccc2)c(N)c1C(O)(CSc1nccn1C)C(F)(F)F` (centres undefined), the EC50 in test [7] is > 195 µM (not active).

As to `O=C(c1c(F)cccc1F)N1CCN(c2ccccc2F)CC1`, the EC50 in test [7] is > 195 µM (not active).

As for `COc1ccc(S(=O)(=O)N2CCC(NC(=O)C(Cc3cccc(OC)c3OC)NC(C)=O)CC2)cc1` (centres undefined), in test [7], the EC50 is given as > 195 µM (not active).

For `Cc1ccsc1C(=O)OCC(=O)c1cc2ccccc2o1`, the EC50 in test [3], in test [4] and in test [5] was > 150 µM (not active) throughout.

As for `CCOc1ccc(CN2CCCC(CNC(=O)c3ccc(F)cc3)C2)cc1CO` (centres undefined), the EC50 is 0.771 µM (active) in test [1] and > 30 µM (not active) in test [2].

For `Cc1ccccc1SCC(=O)Nc1cc(C(F)(F)F)ccc1N1CCOCC1`, the EC50 was 3.94 µM (active) in test [1] and > 60 µM (not active) in test [2].

For `CN(c1ccccc1)c1nc(N2CCCC2)nc(-n2ccnc2)n1`, the EC50 was 13.1 µM (active) in test [3], > 50 µM (not active) in test [4] and 75.6 µM (active) in test [5].

`CN1CCC(OC(=O)c2cccc(F)c2)CC1`: the EC50 is 0.256 µM (active) in test [1] and > 30 µM (not active) in test [2].

On to `CC1CCN(CCOCCOc2ccc(Cl)cc2Br)CC1`, for which the concentration giving a half-maximal response (EC50) in test [1] was 0.54 µM (active); in test [2], 13.8 µM (active).

Regarding `O=C(N/N=C/c1cc([N+](=O)[O-])ccc1O)c1ccncc1`, the EC50 in test [7] was 0.66 µM (active).

With `Cc1[nH]c2ccccc2c1/C=N/Nc1ccccc1[N+](=O)[O-]`, the EC50 was 2.3 µM (active) in test [1] and > 60 µM (not active) in test [2].

Turning to `CCOc1cc(/C=N/NC(=O)CN(CCc2ccccc2)S(=O)(=O)c2ccc(NC(C)=O)cc2)ccc1O`, in test [7], the EC50 is reported as > 195 µM (not active).

In the case of `CC(/N=C/C1=C(O)OC(C)(C)OC1=O)C(=O)O` (centres undefined), the EC50 in test [2] is on record as > 60 µM (not active).

On to `CCOc1ccc(/C=N/Nc2cc(N3CCOCC3)nc(C)n2)c(O)c1`, for which the EC50 in test [3], in test [4] and in test [5] was > 150 µM (not active) in each case.

On to `O=C(CSc1ccccn1)N/N=C/c1cc([N+](=O)[O-])ccc1O`, for which the EC50 in test [3] was 1.01 µM (active); in test [4], 2.72 µM (active).

Take `CCCCCCCCCC(=O)N/N=C(\C)c1cccnc1`: the EC50 is 1.31 µM (active) in test [1] and > 60 µM (not active) in test [2].

On to `COc1cccc(/C=N/NC(=O)c2nnn(-c3nonc3N)c2C(C)C)c1OCc1ccc(F)cc1`, for which the EC50 in test [3] was 13 µM (active); in test [4], 43.1 µM (active); in test [5], 62.6 µM (active).

For `O=C(O)c1cc2cc(F)ccc2[nH]1` [5-FLUOROINDOLE-2-CARBOXYLIC ACID], the EC50 in test [7] is on record as > 195 µM (not active).
